Experimental data from publication PMC5681660, “Reduced hepatitis B and D viral entry using clinically applied drugs as novel inhibitors of the bile acid transporter NTCP” (Scientific Reports, 2017).
Structures can show the parent of a compound that is named as a salt. Where two headings read alike, the source gives them in different places.

Target: T1, human NTCP (Homo sapiens, UniProt Q14973)
T1 sequence (Q14973 1-349): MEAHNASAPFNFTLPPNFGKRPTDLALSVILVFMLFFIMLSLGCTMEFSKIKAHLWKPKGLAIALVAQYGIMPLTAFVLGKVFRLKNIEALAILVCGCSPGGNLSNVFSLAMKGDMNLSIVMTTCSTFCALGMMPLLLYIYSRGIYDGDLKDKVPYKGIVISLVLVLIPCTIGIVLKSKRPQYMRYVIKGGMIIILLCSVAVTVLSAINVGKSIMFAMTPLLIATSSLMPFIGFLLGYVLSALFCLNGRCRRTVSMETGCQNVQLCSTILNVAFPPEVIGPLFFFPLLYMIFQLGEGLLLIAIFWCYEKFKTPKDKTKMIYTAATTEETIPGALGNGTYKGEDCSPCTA
Assay: Screening taurocholate uptake assay (96-well, [14C]taurocholate, 10 µM drug)

[1] = ranking over the functional and the binding screening assay
[2] = screening taurocholate uptake, 10 µM drug
[3] = combined ranking of functional and binding screening assays
[4] = screening taurocholate uptake, 10 µM drug, B-score

## [H]/N=C(\N/C(=N/[H])NCCCCCCNC(=N)NC(=N)Nc1ccc(Cl)cc1)Nc1ccc(Cl)cc1 [Chlorhexidine]
[1]
  Ranking score: 185.515
[2]
  B-score functional assay: 0.062

## CC(=O)O[C@]1(C(C)=O)CC[C@H]2[C@@H]3C=C(Cl)C4=CC(=O)CC[C@]4(C)[C@H]3CC[C@@]21C [Chlormadinone acetate]
[1]
  Ranking score: 87.43
[2]
  B-score functional assay: -1.751

## Oc1c(Cl)cc(Cl)c2cccnc12 [Chloroxine]
[3]
  Ranking score: 538.476
[2]
  B-score functional assay: -0.339

## NC(=O)OCC(O)COc1ccc(Cl)cc1 (stereo not drawn) [Chlorphensin carbamate]
[3]
  Ranking score: 1211.24
[4]
  B-score functional assay: 3.271

## CN(C)CCCN1c2ccccc2Sc2ccc(Cl)cc21 [Chlorpromazine hydrochloride]
[1]
  Ranking score: 173.367
[2]
  B-score functional assay: 1.542

## NS(=O)(=O)c1cc(C2(O)NC(=O)c3ccccc32)ccc1Cl (stereo not drawn) [Chlorthalidone]
[3]
  Ranking score: 532.184
[2]
  B-score functional assay: -1.121

## COCCOC(=O)C1=C(C)NC(C)=C(C(=O)OC/C=C/c2ccccc2)C1c1cccc([N+](=O)[O-])c1 (stereo not drawn) [Cilnidipine]
[3]
  Ranking score: 582.255
[2]
  B-score functional assay: 0.219

## CN/C(=N/CCSCc1nc[nH]c1C)NC#N [Cimetidine]
[1]
  Ranking score: 269.583
[2]
  B-score functional assay: -0.365

## CC(C)(Oc1ccc(C2CC2(Cl)Cl)cc1)C(=O)O (stereo not drawn) [Ciprofibrate]
[3]
  Ranking score: 539.316
[2]
  B-score functional assay: 0.025

## COc1cc(N)c(Cl)cc1C(=O)NC1CCN(CCCOc2ccc(F)cc2)CC1OC (stereo not drawn) [Cisapride]
[1]
  Ranking score: 235.1
[2]
  B-score functional assay: -0.847

## CN(C)CCCC1(c2ccc(F)cc2)OCc2cc(C#N)ccc21 (stereo not drawn) [Citalopram Hydrobromide]
[1]
  Ranking score: 277.496
[2]
  B-score functional assay: -1.909

## Nc1nc(Cl)nc2c1ncn2[C@H]1C[C@H](O)[C@@H](CO)O1 [Cladribine]
[1]
  Ranking score: 277.042
[2]
  B-score functional assay: -0.011

## CC(C)(C)NCC(O)c1cc(Cl)c(N)c(Cl)c1 (stereo not drawn) [Clenbuterol hydrochloride]
[3]
  Ranking score: 497.397
[2]
  B-score functional assay: -0.705

## Oc1c(I)cc(Cl)c2cccnc12 [Clioquinol]
[3]
  Ranking score: 627.53
[2]
  B-score functional assay: 0.225

## CCC(=O)O[C@]1(C(=O)CCl)[C@@H](C)C[C@H]2[C@@H]3CCC4=CC(=O)C=C[C@]4(C)[C@@]3(F)[C@@H](O)C[C@@]21C [Clobetasol propionate]
[1]
  Ranking score: 265.371
[2]
  B-score functional assay: -0.819

## CC(CN(C)C)C(C)(O)Cc1ccc(Cl)cc1.Cl (stereo not drawn) [Clobutinol hydrochloride]
[3]
  Ranking score: 492.244
[2]
  B-score functional assay: -0.006

## C[C@@H]1C[C@H]2[C@@H]3C[C@H](F)C4=CC(=O)C=C[C@]4(C)[C@@]3(Cl)[C@@H](O)C[C@]2(C)[C@H]1C(=O)COC(=O)C(C)(C)C [Clocortolone pivalate]
[3]
  Ranking score: 1150.27
[4]
  B-score functional assay: 4.298

## CCCCCCC[N+](CC)(CC)CCCCc1ccc(Cl)cc1.Cc1ccc(S(=O)(=O)[O-])cc1 [Clofilium tosylate]
[1]
  Ranking score: 143.363
[2]
  B-score functional assay: -2.506

## Clc1cccc(Cl)c1N=C1NCCN1 [Clonidine hydrochloride]
[3]
  Ranking score: 587.566
[2]
  B-score functional assay: 0.689

## C[C@@H]1CCC[C@H](C)N1NC(=O)c1ccc(Cl)c(S(N)(=O)=O)c1 [Clopamide]
[1]
  Ranking score: 216.069
[2]
  B-score functional assay: -0.164

## C#CCN(C)CCCOc1ccc(Cl)cc1Cl [Clorgyline hydrochloride]
[3]
  Ranking score: 645.563
[2]
  B-score functional assay: 0.335

## Cc1cc(C(C#N)c2ccc(Cl)cc2)c(Cl)cc1NC(=O)c1cc(I)cc(I)c1O (stereo not drawn) [Closantel]
[1]
  Ranking score: 203.568
[2]
  B-score functional assay: -0.508

## Clc1ccccc1C(c1ccccc1)(c1ccccc1)n1ccnc1 [Clotrimazole]
[1]
  Ranking score: 204.208
[2]
  B-score functional assay: -1.203

## Cc1onc(-c2ccccc2Cl)c1C(=O)N[C@@H]1C(=O)N2[C@@H]1SC(C)(C)[C@@H]2C(=O)[O-].[Na+] [Cloxacillin sodium salt]
[1]
  Ranking score: 243.228
[2]
  B-score functional assay: 0.027

## COc1cc2c(c(OC)c1OC)-c1ccc(OC)c(=O)cc1[C@@H](NC(C)=O)CC2 [Colchicine]
  B-score functional assay: -0.631

## CN1CCN(C(c2ccccc2)c2ccccc2)CC1.Cl [Cyclizine hydrochloride]
[3]
  Ranking score: 578.424
[2]
  B-score functional assay: -0.953

## C[C@@H]1C[C@@H]([C@H](O)CC2CC(=O)NC(=O)C2)C(=O)[C@@H](C)C1 [Cycloheximide]
[3]
  Ranking score: 464.697
[2]
  B-score functional assay: 0.172

## CN(C)CCOC(=O)C(c1ccccc1)C1(O)CCCC1 (stereo not drawn) [Cyclopentolate hydrochloride]
[3]
  Ranking score: 624.063
[2]
  B-score functional assay: -0.521

## Nc1ccc(S(=O)(=O)c2ccc(N)cc2)cc1 [Dapsone]
[1]
  Ranking score: 186.888
[2]
  B-score functional assay: 0.012

## CC(=O)N(O)CCCCCNC(=O)CCC(=O)N(O)CCCCCNC(=O)CCC(=O)N(O)CCCCCN [Deferoxamine mesylate]
[1]
  Ranking score: 277.171
[2]
  B-score functional assay: -0.936

## CC[N+](CC)(CC(=O)Nc1c(C)cccc1C)Cc1ccccc1 [Denatonium benzoate]
[3]
  Ranking score: 531.85
[2]
  B-score functional assay: -0.069

## CNCCCN1c2ccccc2CCc2ccccc21 [Desipramine hydrochloride]
Prestwick library screen, taurocholate uptake, 10 µM drug
  B-score functional assay: 0.022
Ranking score beside the functional and binding assay B-scores of the screen
  Ranking score: 719.8

## CC(=O)OCC(=O)[C@@]1(O)[C@H](C)C[C@H]2[C@@H]3CCC4=CC(=O)C=C[C@]4(C)[C@@]3(F)[C@@H](O)C[C@@]21C [Dexamethasone acetate]
[3]
  Ranking score: 586.678
[2]
  B-score functional assay: 0.046

## CC(=O)Oc1cccc2c1C(=O)c1c(OC(C)=O)cc(C(=O)O)cc1C2=O [Diacerein]
[1]
  Ranking score: 199.08
[2]
  B-score functional assay: -4.175

## CN(C)CCN1C(=O)c2ccccc2N(C)c2ccccc21.Cl [Dibenzepine hydrochloride]
[3]
  Ranking score: 501.825
[2]
  B-score functional assay: -0.713

## CCCCOc1cc(C(=O)NCCN(CC)CC)c2ccccc2n1 [Dibucaine]
[3]
  Ranking score: 1210.75
[4]
  B-score functional assay: 1.579

## N#CC(c1ccc(Cl)cc1)c1c(Cl)cc(-n2ncc(=O)[nH]c2=O)cc1Cl (stereo not drawn) [Diclazuril]
[1]
  Ranking score: 46.9894
[2]
  B-score functional assay: -9.074

## O=C(O)Cc1ccccc1Nc1c(Cl)cccc1Cl [Diclofenac sodium]
[3]
  Ranking score: 464.103
[2]
  B-score functional assay: -1.237

## CC/C(=C(/CC)c1ccc(O)cc1)c1ccc(O)cc1 [Diethylstilbestrol]
[1]
  Ranking score: 262.907
[2]
  B-score functional assay: -0.349

## O=C(O)c1cc(-c2ccc(F)cc2F)ccc1O [Diflunisal]
[1]
  Ranking score: 134.198
[2]
  B-score functional assay: -4.496

## CN[C@@H]1[C@H](O[C@H]2[C@H](O[C@H]3[C@H](O)[C@@H](O)[C@H](NC(=N)N)[C@@H](O)[C@@H]3NC(=N)N)O[C@@H](C)[C@]2(O)CO)O[C@@H](CO)[C@H](O)[C@H]1O [Dihydrostreptomycin sulfate]
[1]
  Ranking score: 143.478
[2]
  B-score functional assay: -2.479

## COc1cc(C(=O)OCCCN2CCCN(CCCOC(=O)c3cc(OC)c(OC)c(OC)c3)CC2)cc(OC)c1OC.Cl.Cl [Dilazep dihydrochloride]
[3]
  Ranking score: 649.692
[2]
  B-score functional assay: -0.659

## CN(C(=O)C(Cl)Cl)c1ccc(OC(=O)c2ccco2)cc1 [Diloxanide furoate]
[3]
  Ranking score: 1159.98
[4]
  B-score functional assay: 1.688

## CCCCc1cc2ccccc2c(OCCN(C)C)n1 [Dimethisoquin hydrochloride]
[1]
  Ranking score: 238.967
[2]
  B-score functional assay: -0.419

## CCCCC[C@H](O)/C=C/[C@@H]1[C@@H](C/C=C\CCCC(=O)O)[C@@H](O)C[C@H]1O [Dinoprost trometamol]
[3]
  Ranking score: 615.067
[2]
  B-score functional assay: 0.508

## COc1ccc(-c2cc(=O)c3c(O)cc(O[C@@H]4O[C@H](CO[C@@H]5O[C@@H](C)[C@H](O)[C@@H](O)[C@H]5O)[C@@H](O)[C@H](O)[C@H]4O)cc3o2)cc1O [Diosmin]
[1]
  Ranking score: 207.123
[2]
  B-score functional assay: -1.635

## C[N+]1(C)CCC(=C(c2ccccc2)c2ccccc2)CC1 [Diphemanil methylsulfate]
[3]
  Ranking score: 1220.85
[4]
  B-score functional assay: 2.82

## CN1CCC(OC(c2ccccc2)c2ccccc2)CC1 [Diphenylpyraline hydrochloride]
[1]
  Ranking score: 142.127
[2]
  B-score functional assay: -0.425

## CNCC(O)c1ccc(OC(=O)C(C)(C)C)c(OC(=O)C(C)(C)C)c1 (stereo not drawn) [Dipivefrin hydrochloride]
[3]
  Ranking score: 1200.98
[4]
  B-score functional assay: 1.926

## CCN(CC)C(=S)SSC(=S)N(CC)CC [Disulfiram]
[1]
  Ranking score: 82.3772
[2]
  B-score functional assay: -4.037

## C[C@]12N[C@H](Cc3ccccc31)c1ccccc12 [Dizocilpine maleate]
[3]
  Ranking score: 484.42
[2]
  B-score functional assay: -0.357

## CC(=O)O[C@@]12CO[C@@H]1C[C@H](O)[C@@]1(C)C(=O)[C@H](O)C3=C(C)[C@@H](OC(=O)[C@H](O)[C@@H](NC(=O)OC(C)(C)C)c4ccccc4)C[C@@](O)([C@@H](OC(=O)c4ccccc4)[C@H]21)C3(C)C [Docetaxel]
[1]
  Ranking score: 106.066
[2]
  B-score functional assay: -5.513

## CN(CCOc1ccc(NS(C)(=O)=O)cc1)CCc1ccc(NS(C)(=O)=O)cc1 [Dofetilide]
[3]
  Ranking score: 626.449
[2]
  B-score functional assay: -0.213
